From patent publication US9578878B2, “Antimicrobial efficacy of an oregano oil and caprylic acid blend” (Kemin Industries, Inc., priority 2014, dated 2017)

How the values were obtained:
[1] = test system: Escherichia coli (ATCC #8739); assay: Microtiter assay, MIC to inhibit 90% growth; format: cell-based; settings: 24 hours, n = 3
Description: (§1) For assays to find minimum inhibitory concentrations, all treatments were diluted in 10% DMSO and 0.5% Tween 80 to stabilize the samples.
(§2) Microorganisms Escherichia coli (ATCC #8739), Streptococcus sanguinis (ATCC #BAA-1455), Salmonella enteria subsp. enterica (ex Kauffmann and Edwards) Le Minor and Popoff serovar Typhimurium (ATCC #14028), Staphylococcus aureus (ATCC #6538), Pseudomonas aeruginosa (ATCC #9027), and Candida albicans (ATCC #10231) were obtained from a −80° C. internal stock culture. Aspergillus brasiliensis (ATCC #16404) was obtained from an internal stock solution culture stored at 4° C. E. coli, S. enterica S. aureus, and P. aeruginosa were grown in tryptic soy broth (TSB) and incubated at 37° C. for 24 h. S. sanguinis was grown in brain heart infusion broth (BHI). A. brasiliensis was plated on Sabourand dextrose agar (SDA) and incubated at 25° C. for 5-7 days. C. albicans was grown in Sabourand dextrose broth (SDB) and incubated at 25° C. for 48 h.
(§3) A. brasiliensis was harvested by adding 18 mL sterile saline to the plate and agitating the mold from the agar with a sterile inoculating loop. The inoculum was collected upon agitation. All suspended microbes were diluted with the same type of broth media used to grow each organism until an inoculum in the range of 10^6 CFU/mL was achieved. The inoculum concentration was determined by plate count method. Each strain was identified by plating on the appropriate growth media, E. coli, S. aureus, and P. aeruginosa on tryptic soy agar (Bacto, BD Sciences, Manassas, Va.) and C. albicans and A. brasiliensis on Sabrouand dextrose agar, to ensure there was no contamination of the inoculum.
(§4) Microtiter Assay. A microtiter assay was completed E. coli, S. aureus, P. aeruginosa, S. enteria, S. sanguinis, and C. albicans. Briefly, 10^6 cfu/ml preparations of each organism were made and enumerated using a Petroff-Hausser counting chamber. A 100 μl aliquot of the inoculums was dispensed into microtiter plate wells and a 100 μl aliquot of treatment was dispensed into the same wells. Two separate set of wells were prepared as positive and negative controls, with the positive wells containing 100 μl test organism in growth media and 100 μl sterile phosphate buffer and with the negative control wells containing 100 μl of the same growth media and 100 μl sterile phosphate buffer. The plates were incubated overnight at the appropriate temperature for each organism. A plate reader was used to track the kinetic growth curve using 405 nm and […]. The last time point at 24 hours was averaged and used to determine MIC90. Each treatment was conducted in triplicate wells.

[2] = test system: Pseudomonas aeruginosa (ATCC #9027); assay: Microtiter assay, MIC to inhibit 90% growth; format: cell-based; settings: 24 hours, n = 3
Description: as §1, §2, §3, §4

[3] = test system: Salmonella enterica; assay: Microtiter assay, MIC to inhibit 90% growth; format: cell-based; settings: 24 hours, n = 3
Description: as §1, §2, §3, §4

[4] = test system: Staphylococcus aureus (ATCC #6538); assay: Microtiter assay, MIC to inhibit 90% growth; format: cell-based; settings: 24 hours, n = 3
Description: as §1, §2, §3, §4

[5] = test system: Candida albicans (ATCC #10231); assay: Microtiter assay, MIC to inhibit 90% growth; format: cell-based; settings: 24 hours, n = 3
Description: as §1, §2, §3, §4

[6] = test system: Streptococcus sanguinis (ATCC #BAA-1455); assay: Microtiter assay, MIC to inhibit 90% growth; format: cell-based; settings: 24 hours, n = 3
Description: as §1, §2, §3, §4

[7] = test system: A. brasiliensis; assay: Poison agar assay; format: cell-based, Aspergillus brasiliensis
Description: as §2, §3
A poison agar assay was completed for A. brasiliensis. Potato dextrose agar was used as the plated medium. Inocula at 10^5 cfu/ml were prepared and counted using a Petroff-Hausser counting chamber. Each treatment was added directly into the control without DMSO and Tween 80 as used in the previous experiments. The diameter of no growth around a 6 mm blank disk after incubation at 25° C. for 72 hrs was compared to the untreated control.

[8] = test system: A. brasiliensis; assay: Zone of inhibition assay; format: cell-based, Aspergillus brasiliensis; settings: 20 μL per 6 mm disk, 72 hrs, n = 3
Description: as §1, §2, §3
A zone of inhibition assay was used for A. brasiliensis and C. albicans. SDA was used as the plated medium. Inocula at 10^5 cfu/ml were prepared and counted using a Petroff-Hausser counting chamber. The diameter of no growth around a 6 mm blank disk after incubation at 25° C. for 72 hrs was compared to the untreated control. 20 μL of treatment was applied to each disk in triplicate. 10% DMSO was used as the control.

CCCCCCCC(=O)O [Caprylic Acid, octanoic acid]
Minimum Inhibitory Concentration (MIC) to inhibit 90% growth, E. coli [1]: 0.27%
Minimum Inhibitory Concentration (MIC) to inhibit 90% growth, P. aeruginosa [2]: 0.90%
Minimum Inhibitory Concentration (MIC) to inhibit 90% growth, S. enterica [3]: 0.90%
Minimum Inhibitory Concentration (MIC) to inhibit 90% growth, S. aureus [4]: 0.09%
Minimum Inhibitory Concentration (MIC) to inhibit 90% growth, C. albicans [5]: 0.09%
Minimum Inhibitory Concentration (MIC) to inhibit 90% growth, S. sanguinis [6]: 0.09%
% Inhibition from Control ([7]; 0.045% in agar): 34.60%
Diameter of Growth ([7]; 0.045% in agar): 5.00 mm
% Inhibition from Control ([7]; 0.090% in agar): 100.00%
Diameter of Growth ([7]; 0.090% in agar): 0.00 mm
% Inhibition from Control ([7]; 0.270% in agar): 100.00%
Diameter of Growth ([7]; 0.270% in agar): 0.00 mm
MIC90 in the poison agar assay ([7]; potato dextrose agar, 25° C., 72 hrs): 0.09%
Inhibition Diameter, A. brasiliensis ([8]; 0.9% treatment): 0 mm
Inhibition Diameter, A. brasiliensis ([8]; 2.7% treatment): 0 mm
Inhibition Diameter, A. brasiliensis ([8]; 4.5% treatment): 0 mm
